Test: Absorbance and fluorescence emission spectra (SpectraMax M2)
Assay type: physicochemical
Conditions: MKAC compound library; absorbance maximum
Procedure, shortened: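 Absorbance and emission maxima measured on a SpectraMax M2 spectrophotometer, which also gave quantum yield data; analysis in GraphPrism.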

Compared with `CCOc1ccccc1CNC1=[N+]2C(=C(c3ccc(NC(C)=O)cc3)c3ccc(-n4cc(CC(C)C)nn4)n3[B-]2(F)F)C=C1` [MKAC103-43], `CCOc1ccccc1CNC1=[N+]2C(=C(c3ccc(NC(C)=O)cc3)c3ccc(-n4cc(CO)nn4)n3[B-]2(F)F)C=C1` [MKAC103-70] is lower in “λmax Abs. (nm)” value: 465 nm for the first, 464 nm for the second.

Going from `CCCc1cn(-c2ccc3n2[B-](F)(F)[N+]2=C(NCc4ccccc4OCC)C=CC2=C3c2ccc(NC(C)=O)cc2)nn1` [MKAC103-48] to `CCCCCC(O)c1cn(-c2ccc3n2[B-](F)(F)[N+]2=C(NCc4ccccc4OCC)C=CC2=C3c2ccc(NC(C)=O)cc2)nn1` (stereo not drawn) [MKAC103-69], the “λmax Abs. (nm)” value falls from 466 nm to 465 nm.

`COc1ccc(OC)c(CNC2=[N+]3C(=C(c4ccc(NC(C)=O)cc4)c4ccc(-n5cc(C6CC6)nn5)n4[B-]3(F)F)C=C2)c1` [MKAC181-4] and `COc1ccc(OC)c(CNC2=[N+]3C(=C(c4ccc(NC(C)=O)cc4)c4ccc(-n5cc(C6CCCC6)nn5)n4[B-]3(F)F)C=C2)c1` [MKAC181-5] are the same in “λmax Abs. (nm)” value: 464 nm for the first, 464 nm for the second.

`COc1ccc(OC)c(CNC2=[N+]3C(=C(c4ccc(NC(C)=O)cc4)c4ccc(-n5cc(CC6CCCCC6)nn5)n4[B-]3(F)F)C=C2)c1` [MKAC181-8] and `COc1ccc(OC)c(CNC2=[N+]3C(=C(c4ccc(NC(C)=O)cc4)c4ccc(-n5cc(CO)nn5)n4[B-]3(F)F)C=C2)c1` [MKAC181-70] are the same in “λmax Abs. (nm)” value: 465 nm for the first, 465 nm for the second.

`COc1ccc(OC)c(CNC2=[N+]3C(=C(c4ccc(NC(C)=O)cc4)c4ccc(-n5cc(CN(C)Cc6ccccc6)nn5)n4[B-]3(F)F)C=C2)c1` [MKAC181-18] and `COc1ccc(OC)c(CNC2=[N+]3C(=C(c4ccc(NC(C)=O)cc4)c4ccc(-n5cc(CCc6ccccc6)nn5)n4[B-]3(F)F)C=C2)c1` [MKAC181-19] are the same in “λmax Abs. (nm)” value: 464 nm for the first, 464 nm for the second.

Going from `COc1ccc(OC)c(CNC2=[N+]3C(=C(c4ccc(NC(C)=O)cc4)c4ccc(-n5cc(CC(C)C)nn5)n4[B-]3(F)F)C=C2)c1` [MKAC181-43] to `CCCc1cn(-c2ccc3n2[B-](F)(F)[N+]2=C(NCc4cc(OC)ccc4OC)C=CC2=C3c2ccc(NC(C)=O)cc2)nn1` [MKAC181-48], the “λmax Abs. (nm)” value falls from 467 nm to 465 nm.

First: CC(=O)Nc1ccc(C2=C3C=CC(N(C)Cc4ccccc4)=[N+]3[B-](F)(F)n3c2ccc3-n2cc(C3CC3)nn2)cc1 [MKAC195-4]
Second: CC(=O)Nc1ccc(C2=C3C=CC(N(C)Cc4ccccc4)=[N+]3[B-](F)(F)n3c2ccc3-n2cc(C3CCCC3)nn2)cc1 [MKAC195-5]
The “λmax Abs. (nm)” value of the first is lower: 466 nm for the first, 467 nm for the second.

With `CC(=O)Nc1ccc(C2=C3C=CC(N(C)Cc4ccccc4)=[N+]3[B-](F)(F)n3c2ccc3-n2cc(CC3CCCCC3)nn2)cc1` [MKAC195-8] the “λmax Abs. (nm)” value was 466 nm.

Same assay, conditions: MKAC compound library; fluorescence emission maximum

First: CCOc1ccccc1CNC1=[N+]2C(=C(c3ccc(NC(C)=O)cc3)c3ccc(-n4cc(CC(C)C)nn4)n3[B-]2(F)F)C=C1 [MKAC103-43]
Second: CCOc1ccccc1CNC1=[N+]2C(=C(c3ccc(NC(C)=O)cc3)c3ccc(-n4cc(CO)nn4)n3[B-]2(F)F)C=C1 [MKAC103-70]
The “λmax Em. (nm)” value of the first is higher: 560 nm for the first, 558 nm for the second.

Going from `CCCc1cn(-c2ccc3n2[B-](F)(F)[N+]2=C(NCc4ccccc4OCC)C=CC2=C3c2ccc(NC(C)=O)cc2)nn1` [MKAC103-48] to `CCCCCC(O)c1cn(-c2ccc3n2[B-](F)(F)[N+]2=C(NCc4ccccc4OCC)C=CC2=C3c2ccc(NC(C)=O)cc2)nn1` (stereo not drawn) [MKAC103-69], the “λmax Em. (nm)” value falls from 562 nm to 561 nm.

Compared with `COc1ccc(OC)c(CNC2=[N+]3C(=C(c4ccc(NC(C)=O)cc4)c4ccc(-n5cc(C6CC6)nn5)n4[B-]3(F)F)C=C2)c1` [MKAC181-4], `COc1ccc(OC)c(CNC2=[N+]3C(=C(c4ccc(NC(C)=O)cc4)c4ccc(-n5cc(C6CCCC6)nn5)n4[B-]3(F)F)C=C2)c1` [MKAC181-5] is higher in “λmax Em. (nm)” value: 562 nm for the first, 563 nm for the second.

First: COc1ccc(OC)c(CNC2=[N+]3C(=C(c4ccc(NC(C)=O)cc4)c4ccc(-n5cc(CC6CCCCC6)nn5)n4[B-]3(F)F)C=C2)c1 [MKAC181-8]
Second: COc1ccc(OC)c(CNC2=[N+]3C(=C(c4ccc(NC(C)=O)cc4)c4ccc(-n5cc(CO)nn5)n4[B-]3(F)F)C=C2)c1 [MKAC181-70]
The “λmax Em. (nm)” value of the first is higher: 564 nm for the first, 559 nm for the second.

`COc1ccc(OC)c(CNC2=[N+]3C(=C(c4ccc(NC(C)=O)cc4)c4ccc(-n5cc(CN(C)Cc6ccccc6)nn5)n4[B-]3(F)F)C=C2)c1` [MKAC181-18] and `COc1ccc(OC)c(CNC2=[N+]3C(=C(c4ccc(NC(C)=O)cc4)c4ccc(-n5cc(CCc6ccccc6)nn5)n4[B-]3(F)F)C=C2)c1` [MKAC181-19] are the same in “λmax Em. (nm)” value: 561 nm for the first, 561 nm for the second.

Compared with `COc1ccc(OC)c(CNC2=[N+]3C(=C(c4ccc(NC(C)=O)cc4)c4ccc(-n5cc(CC(C)C)nn5)n4[B-]3(F)F)C=C2)c1` [MKAC181-43], `CCCc1cn(-c2ccc3n2[B-](F)(F)[N+]2=C(NCc4cc(OC)ccc4OC)C=CC2=C3c2ccc(NC(C)=O)cc2)nn1` [MKAC181-48] is lower in “λmax Em. (nm)” value: 562 nm for the first, 561 nm for the second.

Going from `CC(=O)Nc1ccc(C2=C3C=CC(N(C)Cc4ccccc4)=[N+]3[B-](F)(F)n3c2ccc3-n2cc(C3CC3)nn2)cc1` [MKAC195-4] to `CC(=O)Nc1ccc(C2=C3C=CC(N(C)Cc4ccccc4)=[N+]3[B-](F)(F)n3c2ccc3-n2cc(C3CCCC3)nn2)cc1` [MKAC195-5], the “λmax Em. (nm)” value falls from 582 nm to 578 nm.

For `CC(=O)Nc1ccc(C2=C3C=CC(N(C)Cc4ccccc4)=[N+]3[B-](F)(F)n3c2ccc3-n2cc(CC3CCCCC3)nn2)cc1` [MKAC195-8], the “λmax Em. (nm)” value was 577 nm.

Test: Quantum yield measurements versus Acridine Yellow in EtOH
Assay type: physicochemical
Conditions: MKAC compound library; quantum yield
Procedure, shortened: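 Fluorescence quantum yield is relative to Acridine Yellow in EtOH (Φ 0.47), with excitation at 460 nm. Integrated emission at 510–700 nm was corrected for absorbance at the excitation wavelength and for solvent refractive index.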

Compared with `CCOc1ccccc1CNC1=[N+]2C(=C(c3ccc(NC(C)=O)cc3)c3ccc(-n4cc(CC(C)C)nn4)n3[B-]2(F)F)C=C1` [MKAC103-43], `CCOc1ccccc1CNC1=[N+]2C(=C(c3ccc(NC(C)=O)cc3)c3ccc(-n4cc(CO)nn4)n3[B-]2(F)F)C=C1` [MKAC103-70] is lower in “φ (%)” value: 22.79% for the first, 15.35% for the second.

First: CCCc1cn(-c2ccc3n2[B-](F)(F)[N+]2=C(NCc4ccccc4OCC)C=CC2=C3c2ccc(NC(C)=O)cc2)nn1 [MKAC103-48]
Second: CCCCCC(O)c1cn(-c2ccc3n2[B-](F)(F)[N+]2=C(NCc4ccccc4OCC)C=CC2=C3c2ccc(NC(C)=O)cc2)nn1 (stereo not drawn) [MKAC103-69]
The “φ (%)” value of the first is lower: 20.07% for the first, 20.91% for the second.

Compared with `COc1ccc(OC)c(CNC2=[N+]3C(=C(c4ccc(NC(C)=O)cc4)c4ccc(-n5cc(C6CC6)nn5)n4[B-]3(F)F)C=C2)c1` [MKAC181-4], `COc1ccc(OC)c(CNC2=[N+]3C(=C(c4ccc(NC(C)=O)cc4)c4ccc(-n5cc(C6CCCC6)nn5)n4[B-]3(F)F)C=C2)c1` [MKAC181-5] is lower in “φ (%)” value: 15.43% for the first, 10.37% for the second.

First: COc1ccc(OC)c(CNC2=[N+]3C(=C(c4ccc(NC(C)=O)cc4)c4ccc(-n5cc(CC6CCCCC6)nn5)n4[B-]3(F)F)C=C2)c1 [MKAC181-8]
Second: COc1ccc(OC)c(CNC2=[N+]3C(=C(c4ccc(NC(C)=O)cc4)c4ccc(-n5cc(CO)nn5)n4[B-]3(F)F)C=C2)c1 [MKAC181-70]
The “φ (%)” value of the first is lower: 13.98% for the first, 15.37% for the second.

Compared with `COc1ccc(OC)c(CNC2=[N+]3C(=C(c4ccc(NC(C)=O)cc4)c4ccc(-n5cc(CN(C)Cc6ccccc6)nn5)n4[B-]3(F)F)C=C2)c1` [MKAC181-18], `COc1ccc(OC)c(CNC2=[N+]3C(=C(c4ccc(NC(C)=O)cc4)c4ccc(-n5cc(CCc6ccccc6)nn5)n4[B-]3(F)F)C=C2)c1` [MKAC181-19] is lower in “φ (%)” value: 18.28% for the first, 14.0% for the second.

Compared with `COc1ccc(OC)c(CNC2=[N+]3C(=C(c4ccc(NC(C)=O)cc4)c4ccc(-n5cc(CC(C)C)nn5)n4[B-]3(F)F)C=C2)c1` [MKAC181-43], `CCCc1cn(-c2ccc3n2[B-](F)(F)[N+]2=C(NCc4cc(OC)ccc4OC)C=CC2=C3c2ccc(NC(C)=O)cc2)nn1` [MKAC181-48] is lower in “φ (%)” value: 13.79% for the first, 11.03% for the second.

Going from `CC(=O)Nc1ccc(C2=C3C=CC(N(C)Cc4ccccc4)=[N+]3[B-](F)(F)n3c2ccc3-n2cc(C3CC3)nn2)cc1` [MKAC195-4] to `CC(=O)Nc1ccc(C2=C3C=CC(N(C)Cc4ccccc4)=[N+]3[B-](F)(F)n3c2ccc3-n2cc(C3CCCC3)nn2)cc1` [MKAC195-5], the “φ (%)” value falls from 5.45% to 4.18%.

In the case of `CC(=O)Nc1ccc(C2=C3C=CC(N(C)Cc4ccccc4)=[N+]3[B-](F)(F)n3c2ccc3-n2cc(CC3CCCCC3)nn2)cc1` [MKAC195-8], the “φ (%)” value was 3.65%.
